This is an account of results in ChEMBL document CHEMBL3046494, “Identification of liver X receptor and farnesoid X receptor dual agonists from Tithonia diversifolia” (Med Chem Res, 2013).

Calls of active or inactive are those of the source. The calls are words filed in the database; no cut-off is given here.

Type in all cases: cell-based
For series [1], the target named is T1, Oxysterols receptor LXR-alpha (Homo sapiens) (UniProt Q13133).
T1 sequence (whole entry): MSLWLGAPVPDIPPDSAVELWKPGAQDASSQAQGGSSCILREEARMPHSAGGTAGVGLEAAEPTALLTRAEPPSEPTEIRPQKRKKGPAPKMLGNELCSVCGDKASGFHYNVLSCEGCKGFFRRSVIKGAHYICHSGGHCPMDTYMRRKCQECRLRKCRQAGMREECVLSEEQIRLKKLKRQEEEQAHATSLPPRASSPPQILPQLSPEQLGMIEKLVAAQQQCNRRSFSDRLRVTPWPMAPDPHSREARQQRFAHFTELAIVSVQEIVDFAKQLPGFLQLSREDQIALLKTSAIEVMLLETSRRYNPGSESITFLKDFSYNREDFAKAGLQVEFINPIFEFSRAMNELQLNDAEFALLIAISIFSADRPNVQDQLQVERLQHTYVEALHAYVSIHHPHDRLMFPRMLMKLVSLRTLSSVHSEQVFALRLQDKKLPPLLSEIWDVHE
Briefly: Agonist activity at Homo sapiens (human) LXRalpha expressed in HepG2 cells assessed as transactivation of SREBP1c gene expression at 10 uM after 48 hr by luciferase reporter gene assay relative to control. On the technique in general: Reporter assays use an easily measured gene product as a stand-in for the process of interest.

The target in series [2] is T2, Bile acid receptor (Homo sapiens) (UniProt Q96RI1).
T2 sequence (whole entry): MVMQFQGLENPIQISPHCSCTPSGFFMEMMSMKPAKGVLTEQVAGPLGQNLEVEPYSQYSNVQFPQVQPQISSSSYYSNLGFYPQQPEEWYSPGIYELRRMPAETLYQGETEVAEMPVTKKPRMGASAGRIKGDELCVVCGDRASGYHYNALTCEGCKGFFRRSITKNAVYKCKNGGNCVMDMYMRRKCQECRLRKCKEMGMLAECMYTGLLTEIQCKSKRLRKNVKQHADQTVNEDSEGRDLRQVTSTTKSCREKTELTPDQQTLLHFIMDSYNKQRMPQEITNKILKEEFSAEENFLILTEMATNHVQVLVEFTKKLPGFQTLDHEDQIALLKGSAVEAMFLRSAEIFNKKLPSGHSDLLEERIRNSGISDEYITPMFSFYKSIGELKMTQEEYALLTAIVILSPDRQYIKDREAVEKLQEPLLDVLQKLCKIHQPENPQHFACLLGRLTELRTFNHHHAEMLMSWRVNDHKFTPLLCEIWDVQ
Briefly: Agonist activity at Homo sapiens (human) FXR ligand binding domain expressed in HepG2 cells assessed as transactivation of SHP gene expression at 10 uM after 48 hr by luciferase reporter gene assay relative to control.

Series [3] addresses T1, Oxysterols receptor LXR-alpha (Homo sapiens). As to the kind of experiment: Agonist activity at Homo sapiens (human) LXRalpha expressed in HepG2 cells assessed as transactivation of ABCA1 gene expression after 48 hr by luciferase reporter gene assay.
The target is the same in series [4]. As to the kind of experiment: Agonist activity at Homo sapiens (human) LXRalpha expressed in HepG2 cells assessed as transactivation of SREBP1c gene expression after 48 hr by luciferase reporter gene assay.
Series [5] addresses T2, Bile acid receptor (Homo sapiens). Briefly: Agonist activity at Homo sapiens (human) FXR ligand binding domain expressed in HepG2 cells assessed as transactivation of GAL4 gene expression at 1 uM after 48 hr by luciferase reporter gene assay relative to control.
Series [6] deals with T3, Oxysterols receptor LXR-beta (Homo sapiens) (UniProt P55055).
T3 sequence (whole entry): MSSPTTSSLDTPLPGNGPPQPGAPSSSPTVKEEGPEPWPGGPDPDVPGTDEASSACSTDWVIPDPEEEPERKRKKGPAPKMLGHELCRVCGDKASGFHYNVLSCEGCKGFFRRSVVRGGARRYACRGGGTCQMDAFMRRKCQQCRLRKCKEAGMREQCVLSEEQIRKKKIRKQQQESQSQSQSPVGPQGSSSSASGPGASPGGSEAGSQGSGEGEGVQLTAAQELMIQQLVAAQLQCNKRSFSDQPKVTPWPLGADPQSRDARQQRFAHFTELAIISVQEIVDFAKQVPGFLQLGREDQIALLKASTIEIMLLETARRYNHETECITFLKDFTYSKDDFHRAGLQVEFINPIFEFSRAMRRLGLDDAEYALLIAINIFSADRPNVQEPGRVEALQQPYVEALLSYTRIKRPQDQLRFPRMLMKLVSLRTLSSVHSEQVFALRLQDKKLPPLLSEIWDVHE
Briefly: Agonist activity at Homo sapiens (human) LXRbeta expressed in HepG2 cells assessed as transactivation of ABCA1 gene expression after 48 hr by luciferase reporter gene assay.

In series [7] the target is T3, Oxysterols receptor LXR-beta (Homo sapiens). As to the kind of experiment: Agonist activity at Homo sapiens (human) LXRbeta expressed in HepG2 cells assessed as transactivation of ABCA1 gene expression at 1 uM after 48 hr by luciferase reporter gene assay relative to control.
For series [8], the target named is T1, Oxysterols receptor LXR-alpha (Homo sapiens). Briefly: Agonist activity at Homo sapiens (human) LXRalpha expressed in HepG2 cells assessed as PEPCK gene expression at 100 nM after 48 hr by luciferase reporter gene assay relative to control.
The next series concerns HepG2. Briefly: Cytotoxicity against Homo sapiens (human) HepG2 cells after 48 hr. As to conditions: hepg2, 48 h.
Series [9] concerns the target T1, Oxysterols receptor LXR-alpha (Homo sapiens). As to the kind of experiment: Agonist activity at Homo sapiens (human) LXRalpha expressed in HepG2 cells assessed as transactivation of ABCA1 gene expression at 10 uM after 48 hr by luciferase reporter gene assay relative to control.
The target of series [10] is T2, Bile acid receptor (Homo sapiens). Briefly: Agonist activity at Homo sapiens (human) FXR ligand binding domain expressed in HepG2 cells assessed as transactivation of GAL4 gene expression at 100 nM after 48 hr by luciferase reporter gene assay relative to control.
Series [11] has as its target T1, Oxysterols receptor LXR-alpha (Homo sapiens). As to the kind of experiment: Agonist activity at Homo sapiens (human) LXRalpha expressed in HepG2 cells assessed as transactivation of CYP7A1 gene expression at 10 uM after 48 hr by luciferase reporter gene assay relative to vehicle-treated control.
For series [12] the target is unchanged. As to the kind of experiment: Agonist activity at Homo sapiens (human) LXRalpha expressed in HepG2 cells assessed as decrease in PEPCK gene transactivation at 10 uM after 48 hr by luciferase reporter gene assay relative to control. Also on record: scale not given: the % may be the effect or the level left.
Series [13] shares this target. Briefly: Agonist activity at Homo sapiens (human) LXRalpha expressed in HepG2 cells assessed as transactivation of SREBP1c gene expression at 1 uM after 48 hr by luciferase reporter gene assay relative to control.
Series [14] has as its target T2, Bile acid receptor (Homo sapiens). As to the kind of experiment: Agonist activity at Homo sapiens (human) FXR ligand binding domain expressed in HepG2 cells assessed as transactivation of SHP gene expression at 100 nM after 48 hr by luciferase reporter gene assay relative to control.
The target of series [15] is T1, Oxysterols receptor LXR-alpha (Homo sapiens). Briefly: Agonist activity at Homo sapiens (human) LXRalpha expressed in HepG2 cells assessed as transrepression of PEPCK gene expression after 48 hr by luciferase reporter gene assay.
In series [16] the target is T3, Oxysterols receptor LXR-beta (Homo sapiens). Briefly: Agonist activity at Homo sapiens (human) LXRbeta expressed in HepG2 cells assessed as transactivation of ABCA1 gene expression at 10 uM after 48 hr by luciferase reporter gene assay relative to control.

Regarding `C=C1C(=O)O[C@@H]2C[C@H](C)[C@@]3(O)C[C@H](O)[C@@](C)(C[C@@H](OC(=O)C(C)C)[C@@H]12)O3` [TAGITININ A], the fold change (FC) in series [1] came out at 3.42; in series [2] it was 2.3; in series [5], 1.6; in [7], 1.5; in series [9], 1.9; in series [11], 2. Moreover, the fold change (FC) in series [13] is 2.26; in series [16] it was 1.5. The Activity result in series [3] is “Dose-dependent effect”; in [4], “Dose-dependent effect”; in series [6], “Dose-dependent effect”; in the series with HepG2, “Non-toxic”; in [12], 58%; in series [15], “Dose-dependent effect”. Further, the outcome in series [8], in [10] and in [14] was inactive.

For `C=C1C(=O)O[C@@H]2/C=C(/C)C(=O)/C=C/[C@](C)(O)C[C@@H](OC(=O)C(C)C)[C@@H]12` [TAGITININ C], the Activity result in the series on HepG2 is listed as “Toxic”.

Consider `C=C1C(=O)O[C@@H]2C[C@H](C)[C@@]3(O)CC[C@@](C)(C[C@@H](OC(=O)C(C)C)[C@@H]12)O3` [TIROTUNDIN], for which the fold change (FC) in series [1] was found to be 4.52; in series [2] it was 2.41; in series [5], 1.6; in series [7], 1.5; in series [8] it was 0.94; in series [9], 1.7. Besides, the fold change (FC) came to 2 in [11], 2.3 in [13] and 2.2 in [16]. Moreover, the Activity entry in series [3] was “Dose-dependent effect”; in series [4], “Dose-dependent effect”; in series [6], “Dose-dependent effect”; in the series on HepG2, “Non-toxic”; in series [12] it was 46%; in [15] it was “Dose-dependent effect”. Also, the outcome in [10] and in [14] was inactive.
